Results on three molecules are retold here after ChEMBL document CHEMBL1125580, “Synthesis and in vivo photodynamic activity of some bacteriochlorin derivatives against bladder tumors in rodents” (1991).

The structures appear in SMILES notation.

Usually ED50 stands for the dose at which the effect has come halfway, by size or by number of responders. Read a high ED50 as weaker potency.

For the experiment, the system named is Rattus norvegicus. The experiment in a line: Compound was evaluated in vivo for the effective dose of irradiation that causes antitumor activity. Particulars: light or radiation study. Format: functional.
For the molecule `CCC1=C(CC)c2cc3[nH]c(cc4[nH]c(cc5nc(cc1n2)C(=O)C5(CC)CC)c(CC)c4CC)C1(CC)C3=CCC(C#N)(C#N)C1(C#N)C#N.CCC1=C(CC)c2cc3[nH]c(cc4[nH]c(cc5nc(cc1n2)C1=CCC(C#N)(C#N)C(C#N)(C#N)C15CC)c(CC)c4CC)C(=O)C3(CC)CC` (mixture of isomers), it took a dose of 2.5 mg/kg to reach the 50% effect level (ED50).
The figure for `CCC1=C(CC)c2cc3[nH]c(cc4[nH]c(cc5nc(cc1n2)C(=O)C5(CC)CC)c(CC)c4CC)C1(CC)C3=CCC(C(=O)OC)=C1C(=O)OC.CCC1=C(CC)c2cc3[nH]c(cc4[nH]c(cc5nc(cc1n2)C1=CCC(C(=O)OC)=C(C(=O)OC)C15CC)c(CC)c4CC)C(=O)C3(CC)CC` (stereo not drawn) is 1 mg/kg; for `C=CC1=C(CC)/C2=C/c3[nH]c(c(CC)c3CC)/C=C3N=C(/C=c4\[nH]/c(c(CC)c4CC)=C\C1N2)C(CC)(CC)C\3=O.C=CC1=C(CC)C2/C=c3\[nH]/c(c(CC)c3CC)=C\C3=NC(=C\c4[nH]c(c(CC)c4CC)/C=C/1N2)/C(=O)C3(CC)CC` (mixture of isomers) it is 2.5 mg/kg.
